pKi: −log10 of the molar value. Numbered stars: 1 amine (or outer) side, 2 acyl side, 3 side chain; on linkers, the order of the positions; unused ones are H or OH. Square brackets hold non-standard residues; d marks the D form. Peptide text beside a SMILES is read from it. * marks the point of attachment. DOTA = O=C(O)CN1CCN(CC(=O)O)CCN(CC(=O)*)CCN(CC(=O)O)CC1; Ala(9-anthryl) = N[C@@H](Cc1c2ccccc2cc2ccccc12)C(=O)O; Gly(N-(3-F-4-Me-benzyl)) = Cc1ccc(CNCC(=O)*)cc1F; Butanoyl(4-(4-I-phenyl)) = O=C(CCCc1ccc(I)cc1)*; Api(1-amidino) = N=C(N)N1CCC(N)(C(=O)O)CC1; Hydrocinnamoyl(4-Me) = Cc1ccc(CCC(=O)*)cc1; d(γGlu) = O=C(O)[C@@H](CCC(=O)[*:2])N[*:1]; Hydrocinnamoyl(4-I) = O=C(CCc1ccc(I)cc1)*; Phe(3-F) = N[C@@H](Cc1cccc(F)c1)C(=O)O; Phe(4-I) = N[C@@H](Cc1ccc(I)cc1)C(=O)O; d2Nal = N[C@H](Cc1ccc2ccccc2c1)C(=O)O; 4Pal = N[C@@H](Cc1ccncc1)C(=O)O; d4Pal = N[C@H](Cc1ccncc1)C(=O)O; Cha = N[C@@H](CC1CCCCC1)C(=O)O; N(octyl)Gly = CCCCCCCCNCC(=O)O; Lauroyl = CCCCCCCCCCCC(=O)*; 4Amb = NCc1ccc(C(=O)O)cc1; Api = NC1(C(=O)O)CCNCC1; X13 = O=C(CNCC1CCSCC1)*; PEG2 = NCCOCCOCCC(=O)O; Ahx = NCCCCCC(=O)O; azaGly = NNC(=O)O; Sar = CNCC(=O)O
biological target: human kisspeptin receptor (Homo sapiens (Human), UniProt Q969F8); assay: Human KISS1R binding assay (membrane competition binding); settings: 90 min at room temperature; competition with 0.2 nM [125I]-metastin (45-54); Flp-In T-Rex 293 kisspeptin membranes; metal complexes nonradioactive Ga, In, Lu; read-out: hKiSSR Binding Ki (90 min)
Summary of the method: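 Radioligand competition: 0.2 nM [125I]-metastin (45-54) displaced by test ligand (usually 0–10,000 nM) over 90 min at room temperature, pH 7.4 buffer with 0.1% BSA. Receptor source is crude membrane (5–10 μg) from tetracycline-induced Flp-In T-Rex 293 cells. Bound label filtered and counted; Ki from non-linear regression.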

human kisspeptin receptor, sequence (Q969F8 whole entry): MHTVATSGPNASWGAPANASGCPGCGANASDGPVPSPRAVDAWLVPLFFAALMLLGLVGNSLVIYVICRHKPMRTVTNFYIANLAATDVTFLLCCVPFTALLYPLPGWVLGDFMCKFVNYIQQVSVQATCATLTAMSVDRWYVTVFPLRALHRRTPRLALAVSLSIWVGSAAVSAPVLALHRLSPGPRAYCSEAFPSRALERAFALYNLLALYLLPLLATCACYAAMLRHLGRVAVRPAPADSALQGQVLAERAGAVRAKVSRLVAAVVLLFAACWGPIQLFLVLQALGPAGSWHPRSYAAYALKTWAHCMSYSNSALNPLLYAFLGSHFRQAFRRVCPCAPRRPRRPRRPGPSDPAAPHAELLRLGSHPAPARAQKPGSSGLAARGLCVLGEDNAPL

SMILES	pKi
CC(C)C[C@H](NC(=O)NNC(=O)[C@H](Cc1ccccc1)NC(=O)[C@@H](NC(=O)[C@H](CC(N)=O)NC(=O)[C@H](CCCCNC(=O)CN1CCN(CC(=O)O)CCN(CC(=O)O)CCN(CC(=O)O)CC1)NC(=O)[C@@H](Cc1ccc(O)cc1)NC(=O)CC[C@@H](NC(=O)CCc1ccc(I)cc1)C(=O)O)[C@@H](C)O)C(=O)NC1(C(=O)N[C@@H](Cc2c[nH]c3ccccc23)C(N)=O)CCN(C(=N)N)CC1 [Compound 320] ({Hydrocinnamoyl(4-I)-d(γGlu)}-[dY]K(DOTA)NTF[azaGly]L[Api(1-amidino)]W-NH2)	> 8.00
Cc1ccc(CNCC(=O)N2CCC(NC(=O)c3ccc(-c4ccccc4OCCNC(=O)[C@H](Cc4ccccc4)NC(=O)CCCCCNC(=O)CN4CCN(CC(=O)O)CCN(CC(=O)O)CCN(CC(=O)O)CC4)cc3)(C(=O)N[C@@H](Cc3c[nH]c4ccccc34)C(N)=O)CC2)cc1F [Compound 283]	7.00 to 8.00
CC(C)C[C@H](NC(=O)NNC(=O)[C@H](Cc1ccccc1)NC(=O)[C@@H](NC(=O)[C@H](CC(N)=O)NC(=O)[C@@H](Cc1ccc2ccccc2c1)NC(=O)[C@@H](Cc1ccc(O)cc1)NC(=O)CCCCCNC(=O)CN1CCN(CC(=O)O)CCN(CC(=O)O)CCN(CC(=O)O)CC1)[C@@H](C)O)C(=O)NC1(C(=O)N[C@@H](Cc2ccccc2)C(N)=O)CCN(C(=N)N)CC1 [Compound 300] ({DOTA-Ahx}-[dY][d2Nal]NTF[azaGly]L[Api(1-amidino)]F-NH2)	> 8.00
Cc1ccc(CNCC(=O)N2CCC(NC(=O)[C@H](CC(C)C)NC(=O)NNC(=O)[C@H](Cc3ccccc3)NC(=O)[C@@H](NC(=O)[C@H](CC(N)=O)NC(=O)[C@@H](Cc3c[nH]c4ccccc34)NC(=O)[C@@H](Cc3ccc(O)cc3)NC(=O)CCOCCOCCNC(=O)CN3CCN(CC(=O)O)CCN(CC(=O)O)CCN(CC(=O)O)CC3)[C@@H](C)O)(C(=O)N[C@@H](Cc3c[nH]c4ccccc34)C(N)=O)CC2)cc1F [Compound 382] ({DOTA-PEG2}-[dY][dW]NTF[azaGly]L[Api](Gly(N-(3-F-4-Me-benzyl)))W-NH2)	> 8.00
Cc1ccc(CNCC(=O)N2CCC(NC(=O)[C@H](CC(C)C)NC(=O)NNC(=O)[C@H](Cc3ccccc3)NC(=O)[C@@H](NC(=O)[C@H](CC(N)=O)NC(=O)[C@@H](Cc3ccncc3)NC(=O)CCCCCNC(=O)CN3CCN(CC(=O)O)CCN(CC(=O)O)CCN(CC(=O)O)CC3)[C@@H](C)O)(C(=O)N[C@@H](Cc3ccncc3)C(N)=O)CC2)cc1F [Compound 295] ({DOTA-Ahx}-[d4Pal]NTF[azaGly]L[Api](Gly(N-(3-F-4-Me-benzyl)))[4Pal]-NH2)	> 8.00
Cc1ccc(CNCC(=O)N2CCC(NC(=O)[C@H](CC(C)C)NC(=O)NNC(=O)[C@H](Cc3ccccc3)NC(=O)[C@@H](NC(=O)[C@H](CC(N)=O)NC(=O)[C@@H](Cc3c[nH]c4ccccc34)NC(=O)[C@@H](Cc3c[nH]cn3)NC(=O)[C@@H](Cc3ccc(O)cc3)NC(=O)CCCCCNC(=O)CN3CCN(CC(=O)O)CCN(CC(=O)O)CCN(CC(=O)O)CC3)[C@@H](C)O)(C(=O)N[C@@H](Cc3c[nH]c4ccccc34)C(N)=O)CC2)cc1F [Compound 32] ({DOTA-Ahx}-[dY][dH][dW]NTF[azaGly]L[Api](Gly(N-(3-F-4-Me-benzyl)))W-NH2)	> 8.00
CCCCCCCCCCCC(=O)N[C@H](Cc1ccc(O)cc1)C(=O)N[C@@H](CCCCNC(=O)CN1CCN(CC(=O)O)CCN(CC(=O)O)CCN(CC(=O)O)CC1)C(=O)N[C@@H](CC(N)=O)C(=O)N[C@H](C(=O)N[C@@H](Cc1ccccc1)C(=O)NNC(=O)N[C@@H](CC(C)C)C(=O)NC1(C(=O)N[C@@H](Cc2c[nH]c3ccccc23)C(N)=O)CCN(C(=N)N)CC1)[C@@H](C)O [Compound 329] (Lauroyl-[dY]K(DOTA)NTF[azaGly]L[Api(1-amidino)]W-NH2)	> 8.00
CC(C)C[C@H](NC(=O)NNC(=O)[C@H](Cc1ccccc1)NC(=O)[C@@H](NC(=O)[C@H](CC(N)=O)NC(=O)[C@@H](Cc1ccc2ccccc2c1)NC(=O)[C@@H](Cc1ccc(O)cc1)NC(=O)CCCCCNC(=O)CN1CCN(CC(=O)O)CCN(CC(=O)O)CCN(CC(=O)O)CC1)[C@@H](C)O)C(=O)NC1(C(=O)N[C@H](Cc2c[nH]c3ccccc23)C(N)=O)CCNCC1 [Compound 339] ({DOTA-Ahx}-[dY][d2Nal]NTF[azaGly]L[Api][dW]-NH2)	> 8.00
Cc1ccc(CNCC(=O)N2CCC(NC(=O)[C@H](CC(C)C)NC(=O)NNC(=O)[C@H](CC3CCCCC3)NC(=O)[C@@H](NC(=O)[C@H](CC(N)=O)NC(=O)CCCCCNC(=O)CN3CCN(CC(=O)O)CCN(CC(=O)O)CCN(CC(=O)O)CC3)[C@@H](C)O)(C(=O)N[C@@H](Cc3c[nH]c4ccccc34)C(N)=O)CC2)cc1F [Compound 313] ({DOTA-Ahx}-NT[Cha][azaGly]L[Api](Gly(N-(3-F-4-Me-benzyl)))W-NH2)	> 8.00
CC(C)C[C@H](NC(=O)NNC(=O)[C@H](Cc1ccc(I)cc1)NC(=O)[C@@H](NC(=O)[C@H](CC(N)=O)NC(=O)[C@H](Cc1c2ccccc2cc2ccccc12)NC(=O)[C@@H](Cc1ccc(O)cc1)NC(=O)CN1CCN(CC(=O)O)CCN(CC(=O)O)CCN(CC(=O)O)CC1)[C@@H](C)O)C(=O)NC1(C(=O)N[C@@H](Cc2ccncc2)C(N)=O)CCN(C(=N)N)CC1 [Compound 188] ({DOTA}-[dY][Ala(9-anthryl)]NT[Phe(4-I)][azaGly]L[Api(1-amidino)][4Pal]-NH2)	7.00 to 8.00
CC(C)C[C@H](NC(=O)NNC(=O)[C@H](Cc1ccccc1)NC(=O)[C@@H](NC(=O)[C@H](CC(N)=O)NC(=O)[C@@H](Cc1ccc2ccccc2c1)NC(=O)[C@@H](Cc1ccc(O)cc1)NC(=O)[C@@H](CCCCNC(=O)CCCc1ccc(I)cc1)NC(=O)CCCCCNC(=O)CN1CCN(CC(=O)O)CCN(CC(=O)O)CCN(CC(=O)O)CC1)[C@@H](C)O)C(=O)NC1(C(=O)N[C@@H](Cc2ccccc2)C(N)=O)CCN(C(=N)N)CC1 [Compound 310] ({DOTA-Ahx}-[dK](Butanoyl(4-(4-I-phenyl)))[dY][d2Nal]NTF[azaGly]L[Api(1-amidino)]F-NH2)	> 8.00

Continued, values first:

pKi	SMILES
> 8.00	CNCC(=O)N1CCC(NC(=O)[C@H](CC(C)C)NC(=O)NNC(=O)[C@H](Cc2ccccc2)NC(=O)[C@@H](NC(=O)[C@H](CC(N)=O)NC(=O)[C@@H](CCCCNC(=O)CN2CCN(CC(=O)O)CCN(CC(=O)O)CCN(CC(=O)O)CC2)NC(=O)[C@@H](Cc2ccc(O)cc2)NC(=O)CCOCCOCCNC(=O)CCc2ccc(C)cc2)[C@@H](C)O)(C(=O)N[C@H](Cc2c[nH]c3ccccc23)C(N)=O)CC1 [Compound 357] ({Hydrocinnamoyl(4-Me)-PEG2}-[dY][dK](DOTA)NTF[azaGly]L[Api](Sar)[dW]-NH2)
< 7.00	CC(C)C[C@H](NC(=O)NNC(=O)[C@H](Cc1ccccc1)NC(=O)[C@@H](NC(=O)[C@H](CC(N)=O)NC(=O)[C@@H](Cc1ccc2ccccc2c1)NC(=O)[C@@H](Cc1ccc(O)cc1)NC(=O)CCCCCNC(=O)CN1CCN(CC(=O)O)CCN(CC(=O)O)CCN(CC(=O)O)CC1)[C@@H](C)O)C(=O)NC1(C(=O)N[C@H](Cc2c[nH]c3ccccc23)C(N)=O)CCN(C(=O)CNCC2CCSCC2)CC1 [Compound 375] ({DOTA-Ahx}-[dY][d2Nal]NTF[azaGly]L[Api](X13)[dW]-NH2)
> 8.00	Cc1ccc(CNCC(=O)N2CCC(NC(=O)[C@H](CC(C)C)NC(=O)NNC(=O)[C@H](Cc3cccc(F)c3)NC(=O)[C@@H](NC(=O)[C@H](CC(N)=O)NC(=O)CCCCCNC(=O)CN3CCN(CC(=O)O)CCN(CC(=O)O)CCN(CC(=O)O)CC3)[C@@H](C)O)(C(=O)N[C@@H](Cc3ccncc3)C(N)=O)CC2)cc1F [Compound 169] ({DOTA-Ahx}-NT[Phe(3-F)][azaGly]L[Api](Gly(N-(3-F-4-Me-benzyl)))[4Pal]-NH2)
> 8.00	Cc1ccc(CNCC(=O)N2CCC(NC(=O)[C@H](CC(C)C)NC(=O)NNC(=O)[C@H](Cc3cccc(F)c3)NC(=O)[C@@H](NC(=O)[C@H](CC(N)=O)NC(=O)[C@H](CCCCN)NC(=O)[C@@H](Cc3ccc(O)cc3)NC(=O)CCCCCNC(=O)CN3CCN(CC(=O)O)CCN(CC(=O)O)CCN(CC(=O)O)CC3)[C@@H](C)O)(C(=O)N[C@@H](Cc3c[nH]c4ccccc34)C(N)=O)CC2)cc1F [Compound 27] ({DOTA-Ahx}-[dY]KNT[Phe(3-F)][azaGly]L[Api](Gly(N-(3-F-4-Me-benzyl)))W-NH2)
> 8.00	CCCCCCCCNCC(=O)N1CCC(NC(=O)[C@H](CC(C)C)NC(=O)NNC(=O)[C@H](Cc2ccccc2)NC(=O)[C@@H](NC(=O)[C@H](CC(N)=O)NC(=O)[C@@H](Cc2ccc3ccccc3c2)NC(=O)[C@@H](Cc2ccc(O)cc2)NC(=O)CCCCCNC(=O)CN2CCN(CC(=O)O)CCN(CC(=O)O)CCN(CC(=O)O)CC2)[C@@H](C)O)(C(=O)N[C@H](Cc2c[nH]c3ccccc23)C(N)=O)CC1 [Compound 374] ({DOTA-Ahx}-[dY][d2Nal]NTF[azaGly]L[Api](N(octyl)Gly)[dW]-NH2)
> 8.00	Cc1ccc(CNCC(=O)N2CCC(NC(=O)[C@H](CC(C)C)NC(=O)NNC(=O)[C@H](CC3CCCCC3)NC(=O)[C@@H](NC(=O)[C@H](CC(N)=O)NC(=O)[C@@H](Cc3ccc4ccccc4c3)NC(=O)[C@@H](Cc3ccc(O)cc3)NC(=O)CN3CCN(CC(=O)O)CCN(CC(=O)O)CCN(CC(=O)O)CC3)[C@@H](C)O)(C(=O)N[C@@H](Cc3c[nH]c4ccccc34)C(N)=O)CC2)cc1F [Compound 318] ({DOTA}-[dY][d2Nal]NT[Cha][azaGly]L[Api](Gly(N-(3-F-4-Me-benzyl)))W-NH2)
> 8.00	CC(C)C[C@H](NC(=O)NNC(=O)[C@H](Cc1ccccc1)NC(=O)[C@@H](NC(=O)[C@H](CC(N)=O)NC(=O)c1ccc(CNC(=O)CN2CCN(CC(=O)O)CCN(CC(=O)O)CCN(CC(=O)O)CC2)cc1)[C@@H](C)O)C(=O)NC1(C(=O)N[C@@H](Cc2ccncc2)C(N)=O)CCN(C(=N)N)CC1 [Compound 272] ({DOTA-4Amb}-NTF[azaGly]L[Api(1-amidino)][4Pal]-NH2)
